Laboratory results reported in ChEMBL document CHEMBL1152890, “Synthesis and evaluation of a novel series of heterocyclic oleanolic acid derivatives with anti-osteoclast formation activity” (Eur J Med Chem, 2009).

Tests used:
Assay type in all cases: functional
[1] = Antiosteoclast activity in ICR mouse osteoblast like cells co-cultured with bone marrow cells assessed as effect on 1-alpha,25(OH)2D3-induced TRAP-positive osteoclast like multinucleated cell formation at 20 uM after 6 days medium replaced every 2 days relative to control
[2] = Antiosteoclast activity in ICR mouse osteoblast like cells co-cultured with bone marrow cells assessed as effect on 1-alpha,25(OH)2D3-induced TRAP-positive osteoclast like multinucleated cell formation at 2 uM after 6 days medium replaced every 2 days relative to control
[3] = Antiosteoclast activity in ICR mouse osteoblast like cells co-cultured with bone marrow cells assessed as recovery of 1-alpha,25(OH)2D3-induced TRAP-positive osteoclast like multinucleated cell formation at 20 uM after 6 days drug removal after 2 days relative to control

Compound	Activity [1]	Activity [2]	Activity [3]
COC(=O)CNC(=O)[C@]12CCC(C)(C)C[C@H]1C1=CC[C@@H]3[C@@]4(C)Cc5c([nH]c6ccc(Cl)cc56)C(C)(C)[C@@H]4CC[C@@]3(C)[C@]1(C)CC2	0%	66.6%	–
COC(=O)[C@H](Cc1ccccc1)NC(=O)[C@]12CCC(C)(C)C[C@H]1C1=CC[C@@H]3[C@@]4(C)CCC(=O)C(C)(C)[C@@H]4CC[C@@]3(C)[C@]1(C)CC2	82.3%	–	99.1%
CC1(C)CC[C@]2(C(=O)NCC(=O)O)CC[C@]3(C)C(=CC[C@@H]4[C@@]5(C)Cc6nccnc6C(C)(C)[C@@H]5CC[C@]43C)[C@@H]2C1	85.1%	–	–
CC(C)C[C@H](NC(=O)[C@]12CCC(C)(C)C[C@H]1C1=CC[C@@H]3[C@@]4(C)Cc5c([nH]c6ccccc56)C(C)(C)[C@@H]4CC[C@@]3(C)[C@]1(C)CC2)C(=O)O	0%	98.2%	80.5%
CC1(C)CC[C@]2(C(=O)N[C@@H](Cc3ccccc3)C(=O)O)CC[C@]3(C)C(=CC[C@@H]4[C@@]5(C)Cc6nc7ccccc7nc6C(C)(C)[C@@H]5CC[C@]43C)[C@@H]2C1	75.4%	–	–
C[C@H](NC(=O)[C@]12CCC(C)(C)C[C@H]1C1=CC[C@@H]3[C@@]4(C)CCC(=O)C(C)(C)[C@@H]4CC[C@@]3(C)[C@]1(C)CC2)C(=O)O	100%	–	–
CC(C)C[C@H](NC(=O)[C@]12CCC(C)(C)C[C@H]1C1=CC[C@@H]3[C@@]4(C)CCC(=O)C(C)(C)[C@@H]4CC[C@@]3(C)[C@]1(C)CC2)C(=O)O	100.6%	–	–
CC[C@H](C)[C@H](NC(=O)[C@]12CCC(C)(C)C[C@H]1C1=CC[C@@H]3[C@@]4(C)Cc5c([nH]c6ccccc56)C(C)(C)[C@@H]4CC[C@@]3(C)[C@]1(C)CC2)C(=O)O	84.4%	–	–
COC(=O)[C@H](C)NC(=O)[C@]12CCC(C)(C)C[C@H]1C1=CC[C@@H]3[C@@]4(C)Cc5c([nH]c6ccc(Cl)cc56)C(C)(C)[C@@H]4CC[C@@]3(C)[C@]1(C)CC2	10.1%	79.9%	–
C[C@H](NC(=O)[C@]12CCC(C)(C)C[C@H]1C1=CC[C@@H]3[C@@]4(C)Cc5nc6ccccc6nc5C(C)(C)[C@@H]4CC[C@@]3(C)[C@]1(C)CC2)C(=O)O	96.5%	–	–
COC(=O)[C@H](CC(C)C)NC(=O)[C@]12CCC(C)(C)C[C@H]1C1=CC[C@@H]3[C@@]4(C)CCC(=O)C(C)(C)[C@@H]4CC[C@@]3(C)[C@]1(C)CC2	92.9%	–	100.2%
CC[C@H](C)[C@H](NC(=O)[C@]12CCC(C)(C)C[C@H]1C1=CC[C@@H]3[C@@]4(C)Cc5c([nH]c6ccccc56)C(C)(C)[C@@H]4CC[C@@]3(C)[C@]1(C)CC2)C(=O)OC	98.4%	–	–
CC[C@H](C)[C@H](NC(=O)[C@]12CCC(C)(C)C[C@H]1C1=CC[C@@H]3[C@@]4(C)Cc5c([nH]c6ccc(Cl)cc56)C(C)(C)[C@@H]4CC[C@@]3(C)[C@]1(C)CC2)C(=O)OC	82.4%	–	–
CC(C)[C@H](NC(=O)[C@]12CCC(C)(C)C[C@H]1C1=CC[C@@H]3[C@@]4(C)Cc5c([nH]c6ccccc56)C(C)(C)[C@@H]4CC[C@@]3(C)[C@]1(C)CC2)C(=O)O	6.1%	70.8%	–
CC1(C)CC[C@]2(C(=O)O)CC[C@]3(C)C(=CC[C@@H]4[C@@]5(C)Cc6nc7ccccc7nc6C(C)(C)[C@@H]5CC[C@]43C)[C@@H]2C1	0%	72.7%	92.6%
CC1(C)CC[C@]2(C(=O)O)CC[C@]3(C)C(=CC[C@@H]4[C@@]5(C)Cc6c([nH]c7ccc(C(=O)O)cc67)C(C)(C)[C@@H]5CC[C@]43C)[C@@H]2C1	0%	77.2%	97.8%
CC1(C)CC[C@]2(C(=O)O)CC[C@]3(C)C(=CC[C@@H]4[C@@]5(C)Cc6nc7cc([N+](=O)[O-])ccc7nc6C(C)(C)[C@@H]5CC[C@]43C)[C@@H]2C1	24.1%	88.7%	–
CC1(C)CC[C@]2(C(=O)N[C@@H](Cc3ccccc3)C(=O)O)CC[C@]3(C)C(=CC[C@@H]4[C@@]5(C)CCC(=O)C(C)(C)[C@@H]5CC[C@]43C)[C@@H]2C1	80.7%	–	–
COC(=O)[C@H](C)NC(=O)[C@]12CCC(C)(C)C[C@H]1C1=CC[C@@H]3[C@@]4(C)Cc5c([nH]c6ccccc56)C(C)(C)[C@@H]4CC[C@@]3(C)[C@]1(C)CC2	0%	99.4%	81.5%
C[C@H](NC(=O)[C@]12CCC(C)(C)C[C@H]1C1=CC[C@@H]3[C@@]4(C)Cc5nccnc5C(C)(C)[C@@H]4CC[C@@]3(C)[C@]1(C)CC2)C(=O)O	76.5%	–	–
COC(=O)[C@H](C)NC(=O)[C@]12CCC(C)(C)C[C@H]1C1=CC[C@@H]3[C@@]4(C)CCC(=O)C(C)(C)[C@@H]4CC[C@@]3(C)[C@]1(C)CC2	29.3%	68.7%	–

Compound	Activity [1]	Activity [2]	Activity [3]
CC[C@H](C)[C@H](NC(=O)[C@]12CCC(C)(C)C[C@H]1C1=CC[C@@H]3[C@@]4(C)Cc5nc6ccccc6nc5C(C)(C)[C@@H]4CC[C@@]3(C)[C@]1(C)CC2)C(=O)OC	78.5%	–	–
CC1(C)CC[C@]2(C(=O)O)CC[C@]3(C)C(=CC[C@@H]4[C@@]5(C)Cc6c([nH]c7ccccc67)C(C)(C)[C@@H]5CC[C@]43C)[C@@H]2C1	51.1%	94.6%	–
COC(=O)[C@@H](NC(=O)[C@]12CCC(C)(C)C[C@H]1C1=CC[C@@H]3[C@@]4(C)CCC(=O)C(C)(C)[C@@H]4CC[C@@]3(C)[C@]1(C)CC2)C(C)C	100.6%	–	–
CC[C@H](C)[C@H](NC(=O)[C@]12CCC(C)(C)C[C@H]1C1=CC[C@@H]3[C@@]4(C)CCC(=O)C(C)(C)[C@@H]4CC[C@@]3(C)[C@]1(C)CC2)C(=O)O	100.3%	–	–
COC(=O)[C@H](CC(C)C)NC(=O)[C@]12CCC(C)(C)C[C@H]1C1=CC[C@@H]3[C@@]4(C)Cc5c([nH]c6ccc(Cl)cc56)C(C)(C)[C@@H]4CC[C@@]3(C)[C@]1(C)CC2	86%	–	–
CC[C@H](C)[C@H](NC(=O)[C@]12CCC(C)(C)C[C@H]1C1=CC[C@@H]3[C@@]4(C)CCC(=O)C(C)(C)[C@@H]4CC[C@@]3(C)[C@]1(C)CC2)C(=O)OC	1.4%	94%	–
COC(=O)[C@@H](NC(=O)[C@]12CCC(C)(C)C[C@H]1C1=CC[C@@H]3[C@@]4(C)Cc5c([nH]c6ccccc56)C(C)(C)[C@@H]4CC[C@@]3(C)[C@]1(C)CC2)C(C)C	99%	–	–
COC(=O)[C@H](Cc1ccccc1)NC(=O)[C@]12CCC(C)(C)C[C@H]1C1=CC[C@@H]3[C@@]4(C)Cc5c([nH]c6ccccc56)C(C)(C)[C@@H]4CC[C@@]3(C)[C@]1(C)CC2	0%	69.2%	79.8%
CC(C)[C@H](NC(=O)[C@]12CCC(C)(C)C[C@H]1C1=CC[C@@H]3[C@@]4(C)Cc5nccnc5C(C)(C)[C@@H]4CC[C@@]3(C)[C@]1(C)CC2)C(=O)O	83.5%	–	–
CC1(C)CC[C@]2(C(=O)NCC(=O)O)CC[C@]3(C)C(=CC[C@@H]4[C@@]5(C)Cc6c([nH]c7ccccc67)C(C)(C)[C@@H]5CC[C@]43C)[C@@H]2C1	9%	95.2%	–
CC1(C)CC[C@]2(C(=O)N[C@@H](Cc3ccccc3)C(=O)O)CC[C@]3(C)C(=CC[C@@H]4[C@@]5(C)Cc6nccnc6C(C)(C)[C@@H]5CC[C@]43C)[C@@H]2C1	89.4%	–	–
CC1(C)CC[C@]2(C(=O)N[C@@H](Cc3ccccc3)C(=O)O)CC[C@]3(C)C(=CC[C@@H]4[C@@]5(C)Cc6c([nH]c7ccccc67)C(C)(C)[C@@H]5CC[C@]43C)[C@@H]2C1	58%	–	–
C[C@H](NC(=O)[C@]12CCC(C)(C)C[C@H]1C1=CC[C@@H]3[C@@]4(C)Cc5c([nH]c6ccccc56)C(C)(C)[C@@H]4CC[C@@]3(C)[C@]1(C)CC2)C(=O)O	21%	90.2%	–
COC(=O)[C@@H](NC(=O)[C@]12CCC(C)(C)C[C@H]1C1=CC[C@@H]3[C@@]4(C)Cc5c([nH]c6ccc(Cl)cc56)C(C)(C)[C@@H]4CC[C@@]3(C)[C@]1(C)CC2)C(C)C	21.1%	90.8%	–
CC(C)[C@H](NC(=O)[C@]12CCC(C)(C)C[C@H]1C1=CC[C@@H]3[C@@]4(C)CCC(=O)C(C)(C)[C@@H]4CC[C@@]3(C)[C@]1(C)CC2)C(=O)O	99.8%	–	–
COC(=O)CNC(=O)[C@]12CCC(C)(C)C[C@H]1C1=CC[C@@H]3[C@@]4(C)Cc5nccnc5C(C)(C)[C@@H]4CC[C@@]3(C)[C@]1(C)CC2	41.1%	93.5%	–
COC(=O)[C@H](CC(C)C)NC(=O)[C@]12CCC(C)(C)C[C@H]1C1=CC[C@@H]3[C@@]4(C)Cc5c([nH]c6ccccc56)C(C)(C)[C@@H]4CC[C@@]3(C)[C@]1(C)CC2	96.8%	–	–
CC1(C)CC[C@]2(C(=O)NCC(=O)O)CC[C@]3(C)C(=CC[C@@H]4[C@@]5(C)Cc6nc7ccccc7nc6C(C)(C)[C@@H]5CC[C@]43C)[C@@H]2C1	91.9%	–	–
CC1(C)CC[C@]2(C(=O)O)CC[C@]3(C)C(=CC[C@@H]4[C@@]5(C)Cc6c([nH]c7ccc([N+](=O)[O-])cc67)C(C)(C)[C@@H]5CC[C@]43C)[C@@H]2C1	0%	83%	38.6%
CC1(C)CC[C@]2(C(=O)NCC(=O)O)CC[C@]3(C)C(=CC[C@@H]4[C@@]5(C)CCC(=O)C(C)(C)[C@@H]5CC[C@]43C)[C@@H]2C1	103%	–	–
CC1(C)CC[C@]2(C(=O)O)CC[C@]3(C)C(=CC[C@@H]4[C@@]5(C)CCC(=O)C(C)(C)[C@@H]5CC[C@]43C)[C@@H]2C1 [OLEANONIC ACID]	1.4%	79.2%	–
